Series [1] deals with MCF7 cells. The series can be described thus: Western blot of MCF7 protein expression after Tamoxifen treatment. It counts as cell-based, Homo sapiens. The note with it: MCF7, TAM 10 μM + K5 10 μM, compared to DMSO. On the procedure: WB was performed according to standard procedures and detected by UVITEC (Eppendorf). Densitometric analysis was performed with NIH ImageJ 1.8 software.
Western Blot. WB was performed according to standard procedures. Total protein extract was performed as in (Aiello et al. 2016). Western blot assay used 10 µg of protein extract and proteins solved by SDS-PAGE. […] Densitometric analysis was performed with NIH Image J 1.8 software (National Institutes of Health, Bethesda, MD, USA), and specific values were normalized to loading control (β-Actin).

Another series has as its system WI38 cells. As to the kind of experiment: SA-β-galactosidase colorimetric assay on senescent WI38. It counts as cell-based, Homo sapiens. The procedure: Previously treated cells were fixed according to the protocols established by the supplier (Cell Signaling). The images were acquired using an optical microscope (Leica) with 5× and 10× magnification (MAG) or the phase microscopy EVOS XL Core at 10× MAG and analyzed using the ImageJ software. The mean signal intensity was then normalized for the total number of cells.
β-galactosidase colorimetric assay. For cell cultures: Previously treated cells were fixed with the fixative solution for 10 min at RT according to the protocols established by the supplier (Senescence β-Galactosidase Staining Kit, #9860S, Cell Signaling, Danvers, MA, USA) Cells were then incubated with the substrate, X-gal, in a solution at pH 6, at 37°C, overnight (16 h) (Itahana et al. 2007). The images were acquired using an optical microscope (Leica, Wetzlar, Germany) with 5 and 10X magnification or the phase microscopy EVOS XL Core at 10X magnification. The images were analyzed using the ImageJ software, quantifying the colorimetric signal emitted by each cell. The mean signal intensity was then normalized for the total number of cells.

Series [2] deals with MCF7 cells. The series can be described thus: Dose-response curves on proliferating and Tamoxifen-induced senescent MCF7 (Incucyte). The format is cell-based, Homo sapiens. The source says:
IMR90 and WI38 lung fibroblasts were purchased from ECACC‐Merck. Human bone marrow (BM)‐derived mesenchymal stromal cells (MSCs) were purchased from Lonza. Human umbilical vein endothelial cells (HUVECs) are primary cells obtained from a pool of donors purchased from Clonetics (Lonza). Murine ear fibroblasts (MearFs) were obtained from C57BL/6J mice maintained in the INRCA “Specific Pathogen Free” (SPF) animal facility. MCF7 breast cancer cells were purchased from ATCC. For dose–response curves, IMR90 and WI38 were induced to senescence through replicative passages; MSCs, HUVECs, and MearFs senescence was induced with Doxorubicin; MCF7 senescence was induced with 4‐Hydroxytamoxifen (Lee et al. [2014]). The EC50 was calculated using GraphPad Prism 10 software. All treatment specifications are reported in the extended section.
MCF7 cell line (ATCC; HTB-22, Homo sapiens, breast cancer) was purchased from ATCC; cells were grown in MEM medium (Corning, New York, USA, #15-010-CVR) supplemented with 10% FBS (Gibco, Invitrogen, Carlsbad, CA, USA, #10270106), 1% glutamine (Corning #25005-CI), 1% penicillin and streptomycin (Corning #30002-CI). Cells were incubated at 37 °C with 5% CO2. Senescent status induction: MCF7 were plated 24 h before the treatment with 4-Hydroxytamoxifen (TAM) 10 μM to induce the senescence described by (Lee et al. 2014). Control cultures were treated with equal volumes of 75% ethanol as the vehicle. The treatment with TAM lasts 96 h, after which the cells have been washed and treated with the senolytic drugs K5 10 µM for another 96 h. The treatment with the senolytic compounds has been renewed at 48 h. Cell mortality and vitality curves after treatment with K5 (10 μM, orange) or Vehicle (DMSO, grey) were monitored using the Incucyte live-cell Analysis system (Sartorius, Goettingen, Germany). The estimated Senolytic index (SI) was calculated as the ratio between the EC50 in proliferating cells and the EC50 in senescent cells, extrapolated using GraphPad Prism 10 software.

The nature of series [3]: Mouse plasma exposure after oral and intravenous administration, brain and kidney distribution. The format is in vivo, CD1 mouse. The note with it: for Kp: CD1, mouse, relative to plasma; for half-life: read-out: T ½ in plasma. On the procedure: APHAD S.r.l (Buccinasco, MI, Italy) performed all evaluations. Detailed protocols are reported in the extended methods section.
Determination of the mouse plasma exposure of K5 after oral […] and intravenous (IV) administration. Determination of K5 distribution in brain and kidney after IV administration. Weighed tissues were homogenized with a Precellys Evolution Homogenizer 1g/5mL of 20 mM ammonium formate buffer pH 6.5 using 3 cycles 25 sec at a speed of 7600 rpm. Plasma or tissue was added to ACN containing Verapamil as Internal standard (0.1 µM) in a […]. Samples were shaken for 10 min at 300 rpm at RT and centrifuged for 15 min at 10°C at 4700 rpm. Working solutions (WS) for the calibration curves and QC samples were prepared by diluting ACN in the range 10-20000ng/mL range. Verapamil was diluted in ACN to reach the final concentration of 0.1 µM (WS_IS). Samples were analyzed on an Acquity UPLC (Waters) coupled with an API 3200 Triple Quadrupole ABSciex. Non-compartmental analysis was applied, and the following pharmacokinetic (PK) parameters were evaluated for each subject or group of subjects: maximum plasma concentration (Cmax), plasma concentration at last timepoint (Clast), time of maximum plasma concentration (Tmax), AUC from time zero to the time of the last quantifiable plasma concentration (AUC0-last), AUC from time zero extrapolated to infinity (AUCinf), mean residence time (MRT), half-life (T½). AUCs were calculated using a linear trapezoidal rule, and a uniform weight was performed as the first general approach. Graphical concentration-time curves are produced after Log transformation (PK Solver 2.0, Excel 2007 Microsoft add-in). The ke was estimated from the terminal part of the log-concentration time plot, which included at least three data points excluding the Cmax. If the terminal phase regression based on R2 was less than 0.85, then the T½ and the AUC0-inf were not reported.

Setting [4] is: plasma, oral 30 mg/kg, CD1 mouse.

The source of these data is publication PMC12266748, “A Xanthine Derivative With Novel Heat Shock Protein 90‐Alpha Inhibitory and Senolytic Properties” (Aging Cell, 2025).

Where two headings read alike, the source gives them in different places.

What is called EC50 is the concentration that produces a half-maximal response. The term bioavailability denotes the share of a dose that reaches the circulation, judged against a reference dose that is usually intravenous. A lower bioavailability goes with poor availability. Broadly, the Cmax is the peak of the concentration-time curve. Broadly, the MRT is a mean duration of stay, worked out from the concentration-time curve.

Consider `Cc1ccccc1-n1c(=O)n(Cc2ccccc2)c(=O)c2[nH]cnc21` [Compound K5, 1-benzyl-3-(2-methylphenyl)-7H-purine-2,6-dione], for which the “Caspase 3 protein level” value in the series with MCF7 cells [1] was “further increased”. Besides, in the series on WI38 cells, the “reduced SA-β-gal+ cells” value was 10%. Further, the EC50 in the series with MCF7 cells [2] (Homo sapiens, MCF7, 96 h, MCF7, K5 96 h, read-out: EC50 proliferating cells) amounted to 167 µM; in the series with MCF7 cells [2] (Homo sapiens, MCF7, 96 h, MCF7, TAM 10 μM 96 h, then K5 96 h, read-out: EC50 senescent cells) it was 24.4 µM; in the series with MCF7 cells [2] (MCF7, K5 96 h, read-out: EC50 proliferating cells), 167 µM; in the series with MCF7 cells [2] (MCF7, TAM 10 μM 96 h, then K5 96 h, read-out: EC50 senescent cells) it was 24 µM. For the same compound, the “Senolytic evidence (no, partly/yes)” value in the series with MCF7 cells [2] (MCF7, 4-hydroxy-tamoxifen) was “Yes”. In addition, in the series with MCF7 cells [2] (MCF7, SI = EC50 in proliferating cells/EC50 senescent cells), the “Senolytic index (estimated)” value was 7. Moreover, the Kp was found to be 0.35 in series [3] (brain, IV 5 mg/kg, read-out: distribution in the brain) and 1.31 in series [3] (kidney, IV 5 mg/kg, read-out: distribution in the kidney). Moreover, the distribution volume result in series [3] (IV 5 mg/kg, CD1 mouse) is reported as “high”. Moreover, the “time of Cmax” value in series [3] (oral 30 mg/kg, CD1 mouse) came out at 10 min. The clearance in series [3] (plasma, IV 5 mg/kg, CD1 mouse) worked out at 38 mL/min/kg. Moreover, the half-life in series [3] (plasma, IV 5 mg/kg, CD1 mouse) was 0.217 h; in series [3] (setting [4]), roughly 5 h. The bioavailability in series [3] (plasma, oral 30 mg/kg vs IV 5 mg/kg, CD1 mouse) came to 54%. Further, the Cmax in series [3] (setting [4]) amounted to 2800 ng/mL. Moreover, in series [3] (plasma, oral 30 mg/kg, CD1 mouse, read-out: mean residence time (MRT) (converted)), the mean residence time MRT is roughly 5 h.
